According to US9481635B2, “Process for preparing gabapentin” (ZACH SYSTEM S.P.A., priority 2013, dated 2016):
“Also recorded” adds a separate entry of the source.

Legend:
[1] = as stated for U.S. Pat. No. 6,518,456; cited from earlier work
[2] = Solubility of gabapentin in anhydrous extraction solvents; type: physicochemical
Description: Thus, the solution of gabapentin in cresol after extraction may be anhydrified, for example, by distillation so as to crystallize the undesired residual salts leaving the gabapentin itself in solution. Said solution of gabapentin in cresol obtained from the removal of the salts by filtration and/or by contro-extraction with water has a chloride content of a few tens of ppm.
The same technique cannot be applied to the corresponding solution in n-butanol of the prior art, since the solubility of gabapentin in the anhydrous solvent is very low; as a result the butanolic solution of gabapentin extraction from the Hofmann end solution, when subjected to anhydrification reaction, leads to the co-precipitation of gabapentin and of these same salts, thus, with no advantage from the point of view of product purity.

Q: For `NCC1(CC(=O)O)CCCCC1` [gabapentin, 1-(aminomethyl)-cyclohexaneacetic acid], which “isoelectric point (pH)” value [1] is on record?
A: 7.2 pH

Q: What about the solubility ([2]; in anhydrous cresol) of the same compound?
A: about 20%

Q: What about the solubility ([2]; in anhydrous n-butanol) of the same compound?
A: virtually zero; also recorded: very low
